One may read the Ki as the equilibrium dissociation constant of an inhibitor or competing ligand from its target. High values mean a looser hold on the target, low ones a stronger hold on the target. As usually defined, the Km is the concentration of substrate that gives half-maximal velocity.

For one series, the target named is T1, CYP1D1 (Danio rerio, UniProt A0ACM8Q602).
T1 sequence (A0ACM8Q602 1-512): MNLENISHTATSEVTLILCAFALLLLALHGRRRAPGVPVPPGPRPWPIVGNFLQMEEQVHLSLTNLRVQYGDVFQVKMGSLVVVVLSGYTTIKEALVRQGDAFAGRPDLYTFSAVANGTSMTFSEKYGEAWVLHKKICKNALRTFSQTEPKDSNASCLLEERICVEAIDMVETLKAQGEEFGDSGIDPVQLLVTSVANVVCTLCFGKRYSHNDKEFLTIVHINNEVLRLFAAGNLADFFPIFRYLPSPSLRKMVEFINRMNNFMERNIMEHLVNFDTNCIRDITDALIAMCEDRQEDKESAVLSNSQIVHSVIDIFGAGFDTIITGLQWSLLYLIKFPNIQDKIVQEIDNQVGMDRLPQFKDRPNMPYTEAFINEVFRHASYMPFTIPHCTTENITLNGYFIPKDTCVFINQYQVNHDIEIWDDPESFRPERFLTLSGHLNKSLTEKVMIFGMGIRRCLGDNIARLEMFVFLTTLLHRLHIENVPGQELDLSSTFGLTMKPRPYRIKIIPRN
The series is classed as biochemical.

The target in a further series is T2, CYP1C2 (Danio rerio, UniProt A0AC58HLV5).
T2 sequence (A0AC58HLV5 1-514): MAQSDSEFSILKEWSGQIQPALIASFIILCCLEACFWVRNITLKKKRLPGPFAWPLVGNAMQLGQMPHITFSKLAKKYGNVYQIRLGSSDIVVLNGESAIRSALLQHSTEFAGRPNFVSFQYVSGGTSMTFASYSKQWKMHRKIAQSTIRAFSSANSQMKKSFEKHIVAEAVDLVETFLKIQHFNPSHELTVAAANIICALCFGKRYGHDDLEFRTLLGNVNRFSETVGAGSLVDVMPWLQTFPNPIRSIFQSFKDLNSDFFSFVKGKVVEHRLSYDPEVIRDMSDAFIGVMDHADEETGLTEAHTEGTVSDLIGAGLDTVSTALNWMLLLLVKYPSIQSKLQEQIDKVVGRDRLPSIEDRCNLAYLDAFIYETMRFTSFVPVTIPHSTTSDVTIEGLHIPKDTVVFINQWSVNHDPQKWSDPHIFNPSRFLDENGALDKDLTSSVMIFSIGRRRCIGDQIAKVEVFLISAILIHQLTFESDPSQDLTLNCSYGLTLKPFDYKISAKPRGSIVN
T2 sequence (P16603 2-691 partner): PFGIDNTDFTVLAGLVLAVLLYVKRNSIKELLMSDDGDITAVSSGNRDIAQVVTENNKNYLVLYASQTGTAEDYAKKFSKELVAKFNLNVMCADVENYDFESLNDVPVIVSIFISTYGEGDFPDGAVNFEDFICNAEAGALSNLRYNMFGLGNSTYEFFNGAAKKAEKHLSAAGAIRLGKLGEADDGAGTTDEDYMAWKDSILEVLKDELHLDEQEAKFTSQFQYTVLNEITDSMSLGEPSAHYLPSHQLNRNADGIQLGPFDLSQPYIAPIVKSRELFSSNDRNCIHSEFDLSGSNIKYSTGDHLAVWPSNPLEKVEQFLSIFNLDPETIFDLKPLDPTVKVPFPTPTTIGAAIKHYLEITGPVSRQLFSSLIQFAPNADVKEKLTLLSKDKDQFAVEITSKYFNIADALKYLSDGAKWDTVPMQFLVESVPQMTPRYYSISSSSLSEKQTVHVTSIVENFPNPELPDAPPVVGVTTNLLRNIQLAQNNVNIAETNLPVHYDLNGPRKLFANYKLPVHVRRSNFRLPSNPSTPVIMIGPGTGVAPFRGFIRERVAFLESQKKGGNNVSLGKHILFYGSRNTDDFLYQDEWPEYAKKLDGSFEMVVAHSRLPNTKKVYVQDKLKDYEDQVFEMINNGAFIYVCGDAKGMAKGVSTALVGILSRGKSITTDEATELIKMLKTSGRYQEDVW
Format: biochemical.

The target of series [1] is T3, CYP1C1 (Danio rerio, UniProt A0PJ31).
T3 sequence (A0PJ31 1-523): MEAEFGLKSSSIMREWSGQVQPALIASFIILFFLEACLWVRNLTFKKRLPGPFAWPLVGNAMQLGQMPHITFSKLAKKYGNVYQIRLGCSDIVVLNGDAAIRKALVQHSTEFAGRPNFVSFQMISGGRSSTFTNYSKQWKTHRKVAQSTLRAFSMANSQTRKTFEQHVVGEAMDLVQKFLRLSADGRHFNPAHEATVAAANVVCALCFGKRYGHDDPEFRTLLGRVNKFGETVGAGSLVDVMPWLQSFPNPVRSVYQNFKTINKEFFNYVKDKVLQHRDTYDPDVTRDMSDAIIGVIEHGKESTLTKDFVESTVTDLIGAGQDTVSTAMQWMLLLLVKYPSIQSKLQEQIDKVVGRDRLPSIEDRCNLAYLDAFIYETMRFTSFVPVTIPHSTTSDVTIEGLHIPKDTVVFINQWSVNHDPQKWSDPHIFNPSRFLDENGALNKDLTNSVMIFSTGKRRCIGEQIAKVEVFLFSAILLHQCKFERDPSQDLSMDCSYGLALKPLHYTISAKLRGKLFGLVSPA
Format: biochemical.

Series [2] deals with T3, CYP1C1. Format: cell-based.
The next series addresses T4, CYP1A (Danio rerio, UniProt A0A8M1PCF4).
T4 sequence (A0A8M1PCF4 1-519): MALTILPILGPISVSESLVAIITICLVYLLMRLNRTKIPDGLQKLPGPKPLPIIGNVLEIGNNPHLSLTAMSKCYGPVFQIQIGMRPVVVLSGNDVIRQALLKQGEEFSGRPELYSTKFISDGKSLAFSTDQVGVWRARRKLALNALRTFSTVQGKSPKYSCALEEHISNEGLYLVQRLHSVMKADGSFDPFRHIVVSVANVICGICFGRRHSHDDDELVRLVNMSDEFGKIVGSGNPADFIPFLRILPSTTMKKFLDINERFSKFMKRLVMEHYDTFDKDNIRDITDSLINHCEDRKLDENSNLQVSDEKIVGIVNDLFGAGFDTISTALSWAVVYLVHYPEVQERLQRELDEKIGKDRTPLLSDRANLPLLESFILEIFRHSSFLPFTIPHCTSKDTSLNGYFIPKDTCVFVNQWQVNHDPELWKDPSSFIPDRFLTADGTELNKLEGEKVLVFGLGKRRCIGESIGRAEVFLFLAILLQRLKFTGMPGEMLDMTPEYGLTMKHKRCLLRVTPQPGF
Kind of series: O-deethylation rate. The series is classed as cell-based.

Series [3] addresses T3, CYP1C1. As to the kind of experiment: kcat for O-demethylation. The series is classed as cell-based.
Substrate in the series “Km for O-deethylation”: CCOc1ccc2nc3ccc(=O)cc-3oc2c1
As to the kind of experiment: Km for O-deethylation. Format: biochemical, Danio rerio. As to conditions: heme; NADPH.

Regarding `c1ccc2c(c1)cc1ccc3cccc4ccc2c1c34` [BaP, benzo[a]pyrene], the inhibition constant (Ki) at CYP1D1 is 12 µM; at CYP1C2 it was 0.2 µM; on CYP1C1 [1], 0.06 µM.
On to `CCOc1ccc2c(C(F)(F)F)cc(=O)oc2c1` [EFC, 7-ethoxy-4-trifluoromethyl-coumarin], for which the “kcat (mol substrate oxidized/mol P450/min) ^a / EFC ^c, ^d” value on CYP1C1 [2] is on record as 1.51 ± 0.14 mol substrate oxidized/mol P450/min.
Turning to `CCOc1ccc2nc3ccc(=O)cc-3oc2c1` [ER, 7-ethoxyresorufin], on CYP1A, the “CYP expressed via pYES/DEST52 ^a / 1A” value was 89.3 ± 1.9 pmol min^−1 mg^−1 microsomal protein.
In the case of `COc1ccc2nc3ccc(=O)cc-3oc2c1` [MR, 7-methoxyresorufin], the “kcat (mol substrate oxidized/mol P450/min) ^b / MR” value at CYP1C1 [3] is 4.9 ± 0.6 mol substrate oxidized/mol P450/min.

B1: CYP1C2 (Danio rerio) (protein)
chain: MAQSDSEFSILKEWSGQIQPALIASFIILCCLEACFWVRNITLKKKRLPGPFAWPLVGNAMQLGQMPHITFSKLAKKYGNVYQIRLGSSDIVVLNGESAIRSALLQHSTEFAGRPNFVSFQYVSGGTSMTFASYSKQWKMHRKIAQSTIRAFSSANSQMKKSFEKHIVAEAVDLVETFLKIQHFNPSHELTVAAANIICALCFGKRYGHDDLEFRTLLGNVNRFSETVGAGSLVDVMPWLQTFPNPIRSIFQSFKDLNSDFFSFVKGKVVEHRLSYDPEVIRDMSDAFIGVMDHADEETGLTEAHTEGTVSDLIGAGLDTVSTALNWMLLLLVKYPSIQSKLQEQIDKVVGRDRLPSIEDRCNLAYLDAFIYETMRFTSFVPVTIPHSTTSDVTIEGLHIPKDTVVFINQWSVNHDPQKWSDPHIFNPSRFLDENGALDKDLTSSVMIFSIGRRRCIGDQIAKVEVFLISAILIHQLTFESDPSQDLTLNCSYGLTLKPFDYKISAKPRGSIVN
B1: the Km in the series “Km for O-deethylation” is 0.11 ± 0.01 µM.

B2: CYP1C1 (Danio rerio) (protein)
chain: MEAEFGLKSSSIMREWSGQVQPALIASFIILFFLEACLWVRNLTFKKRLPGPFAWPLVGNAMQLGQMPHITFSKLAKKYGNVYQIRLGCSDIVVLNGDAAIRKALVQHSTEFAGRPNFVSFQMISGGRSSTFTNYSKQWKTHRKVAQSTLRAFSMANSQTRKTFEQHVVGEAMDLVQKFLRLSADGRHFNPAHEATVAAANVVCALCFGKRYGHDDPEFRTLLGRVNKFGETVGAGSLVDVMPWLQSFPNPVRSVYQNFKTINKEFFNYVKDKVLQHRDTYDPDVTRDMSDAIIGVIEHGKESTLTKDFVESTVTDLIGAGQDTVSTAMQWMLLLLVKYPSIQSKLQEQIDKVVGRDRLPSIEDRCNLAYLDAFIYETMRFTSFVPVTIPHSTTSDVTIEGLHIPKDTVVFINQWSVNHDPQKWSDPHIFNPSRFLDENGALNKDLTNSVMIFSTGKRRCIGEQIAKVEVFLFSAILLHQCKFERDPSQDLSMDCSYGLALKPLHYTISAKLRGKLFGLVSPA
For the molecule B2, in “Km for O-deethylation”, the Km turned out to be 0.085 ± 0.005 µM.

Source of the values: PMC4587093 (Biochimica et biophysica acta, 2015).
